Results published in patent publication US20110166112A1, “METHOD FOR STIMULATING PLATELET PRODUCTION” (Eisai, Inc., priority 2009, published 2011).
Several values for one entry are separate records, joined by “and”; a condition that tells them apart may be missing. Identical values can stand only once.

System: subjects with chronic idiopathic thrombocytopenic purpura (ITP)
Assay: Phase 2 double-blind placebo-controlled dose-ranging 28-day study of E5501 tablets: platelet count response (responder rate)
Assay type: in vivo, human
Details: for Responder, Yes / Responder, No: Day 28; for Subjects Who Maintained Responder Status, No / Subjects Who Maintained Responder Status, Yes: completer population; for Subjects Who Maintained Responder Status, Yes: Day 7 response maintained to Day 28; for subjects with increased platelet counts that met the criteria for positive response / response: day 28; for subjects with increased platelet counts that met the criteria for positive response: FAS
Procedure: This was a phase 2, multi-center, double-blind, randomized, placebo-controlled, dose-ranging, parallel group study of E5501 tablets, used in the treatment of subjects with chronic idiopathic thrombocytopenic purpura (ITP) refractory to or relapsed after at least one prior ITP therapy. Subjects who met all entry criteria were randomly assigned in a 3:3:3:3:1 ratio to one of the following five treatment groups dosed daily for 28 days: 1) E5501 2.5 mg; 2) E5501 5 mg; 3) E5501 10 mg; 4) E5501 20 mg; or 5) placebo (PBO). Each E5501 dosing group consisted of 15 subjects while the PBO group consisted of 5 subjects. All study subjects were evaluated weekly (days 7, 14, 21 and 28) for safety and efficacy while receiving study treatment, with a final assessment for safety and effectiveness performed 4 weeks after the last study dose (day 56) unless the subject entered the follow-on study. Platelet counts were also measured on day 3 and day 5.
The primary objective of this study was to assess platelet count response to E5501 on day 28. The response rate was defined as the proportion of subjects who were not on steroids with a screening visit B platelet count <30,000/mm^3 and who achieved a platelet count ≧50,000/mm^3, together with the proportion of subjects receiving steroids with a screening visit B platelet count ≧30,000/mm^3 but <50,000/mm^3 who achieved a platelet count ≧20,000/mm^3 above their screening visit B platelet count. Secondary objectives of the study included the evaluation of other markers of effectiveness, including changes in peripheral blood platelet count, the proportion of subjects who achieved a platelet count ≧50,000/mm^3 and ≧100,000/mm^3, and the proportion of subjects who achieved a doubling of their platelet count at screening visit B and the assessment of the safety and tolerability of E5501.
Primary efficacy endpoint. The primary endpoint in this study was E5501 responder rate on day 28. A responder is defined as a subject with screening visit B platelet count <30,000/mm^3 who achieves a platelet count ≧50,000/mm^3 or a subject receiving steroids with a screening visit B platelet count ≧30,000/mm^3 but <50,000/mm^3 who achieves a platelet count ≧20,000/mm^3 above their screening visit B platelet count.
The secondary endpoints included changes from screening visit B in peripheral blood platelet counts over time; the proportion of subjects who achieved a platelet count of ≧50,000/mm^3 or ≧100,000/mm^3 on day 28 and the proportion of subjects whose platelet count doubled compared to their platelet count at Screening Visit B.
The populations of interest were defined as follows: • The randomized population included all subjects who were randomized into the study. • The safety population included all randomized subjects who receive at least one dose of study drug and have at least one safety assessment. • The pharmacokinetic (PK) population included all subjects who provided blood sample for analysis of E5501. A subject was included in this population if the subject had at least one blood draw for PK assessment. • The full analysis set (FAS) included all subjects who provided adequate data to derive at least one efficacy assessment. […] The day 28 visit window was defined to be from day 25, to last dose day+1, inclusively; • Other major protocol violations that impacted the platelet endpoint evaluation. Results from Planned Analyses
Primary Efficacy Endpoint. The analysis of efficacy was performed both on the FAS population and the PP population at day 28 visit with LOCF and observed case (OC) approaches. The primary analysis population was the FAS. Fisher's exact test was used to examine the difference of response rates among each treatment pair. All p-values are nominal without adjustment for multiplicity.
Secondary Efficacy Endpoint. Analyses for secondary efficacy endpoints were performed by treatment group and by analysis visit using both LOCF and OC methods. […]

[1] = No Previous History of Splenectomy, 20 mg
[2] = No Previous History of Splenectomy, Total E5501
[3] = Number of Lines of Prior Therapy <3, 2.5 mg
[4] = Number of Lines of Prior Therapy <3, 5 mg
[5] = Number of Lines of Prior Therapy <3, 10 mg
[6] = Number of Lines of Prior Therapy <3, 20 mg
[7] = Number of Lines of Prior Therapy <3, Total E5501
[8] = Number of Lines of Prior Therapy ≧3, 2.5 mg
[9] = Number of Lines of Prior Therapy ≧3, 5 mg
[10] = Number of Lines of Prior Therapy ≧3, 10 mg
[11] = Number of Lines of Prior Therapy ≧3, 20 mg
[12] = Number of Lines of Prior Therapy ≧3, Total E5501
[13] = Per Protocol Population, 2.5 mg
[14] = Per Protocol Population, Total E5501
[15] = Previous History of Splenectomy, 2.5 mg
[16] = Previous History of Splenectomy, 5 mg
[17] = Previous History of Splenectomy, 10 mg
[18] = Previous History of Splenectomy, 20 mg
[19] = Previous History of Splenectomy, Total E5501

O=C(Nc1nc(-c2cc(Cl)cs2)c(N2CCN(C3CCCCC3)CC2)s1)c1cnc(N2CCC(C(=O)O)CC2)c(Cl)c1 [E5501, 1-(3-chloro-5-{[4-(4-chlorothiophen-2-yl)-5-(4-cyclohexylpiperazin-1-yl)thiazol-2-yl]carbamoyl}pyridine-2-yl)piperidine-4-carboxylic acid]
Responder, Yes (No Previous History of Splenectomy, 10 mg): 6 (54.5) n (%)
Responder, No [1]: 1 (11.1) n (%)
Responder, Yes [1]: 8 (88.9) n (%)
Responder, No [2]: 20 (48.8) n (%)
Responder, Yes [2]: 21 (51.2) n (%)
Responder, No [3]: 3 (100.0) n (%)
Responder, Yes [3]: 0 n (%)
Responder, No [4]: 4 (44.4) n (%)
Responder, Yes [4]: 5 (55.6) n (%)
Responder, No [5]: 1 (25.0) n (%)
Responder, Yes [5]: 3 (75.0) n (%)
Responder, No [6]: 1 (14.3) n (%)
Responder, Yes [6]: 6 (85.7) n (%)
Responder, No [7]: 9 (39.1) n (%)
Responder, Yes [7]: 14 (60.9) n (%)
Responder, No [8]: 10 (83.3) n (%)
Responder, Yes [8]: 2 (16.7) n (%)
Responder, No [9]: 3 (50.0) n (%)
Responder, Yes [9]: 3 (50.0) n (%)
Responder, No [10]: 6 (60.0) n (%)
Responder, Yes [10]: 4 (40.0) n (%)
Responder, No [11]: 2 (25.0) n (%)
Responder, Yes [11]: 6 (75.0) n (%)
Responder, No [12]: 21 (58.3) n (%)
Responder, Yes [12]: 15 (41.7) n (%)
Responder, No (Other Site Pooled, 2.5 mg): 8 (88.9) n (%)
Responder, Yes (Other Site Pooled, 2.5 mg): 1 (11.1) n (%)
Responder, No (Other Site Pooled, 5 mg): 6 (60.0)2 n (%)
Responder, Yes (Other Site Pooled, 5 mg): 4 (40.0) n (%)
Responder, No (Other Site Pooled, 10 mg): 4 (57.1) n (%)
Responder, Yes (Other Site Pooled, 10 mg): 3 (42.9) n (%)
Responder, No (Other Site Pooled, 20 mg): 1 (16.7) n (%)
Responder, Yes (Other Site Pooled, 20 mg): 5 (83.3) n (%)
Responder, No (Other Site Pooled, Total E5501): 19 (59.4) n (%)
Responder, Yes (Other Site Pooled, Total E5501): 13 (40.6) n (%)
Responder, No [13]: 11 (84.6) n (%)
Responder, Yes [13]: 2 (15.4) n (%)
Responder, No (Per Protocol Population, 5 mg): 7 (53.8) n (%)
Responder, Yes (Per Protocol Population, 5 mg): 6 (46.2) n (%)
Responder, No (Per Protocol Population, 10 mg): 5 (41.7) n (%)
Responder, Yes (Per Protocol Population, 10 mg): 7 (58.3) n (%)
Responder, No (Per Protocol Population, 20 mg): 3 (25.0) n (%)
Responder, Yes (Per Protocol Population, 20 mg): 9 (75.0) n (%)
Responder, No [14]: 26 (52.0) n (%)
Responder, Yes [14]: 24 (48.0) n (%)
Responder, No [15]: 4 (80.0) n (%)
Responder, Yes [15]: 1 (20.0) n (%)
Responder, No [16]: 2 (50.0) n (%)
Responder, Yes [16]: 2 (50.0) n (%)
Responder, No [17]: 2 (66.7) n (%)
Responder, Yes [17]: 1 (33.3) n (%)
Responder, No [18]: 2 (33.3) n (%)
Responder, Yes [18]: 4 (66.7) n (%)
Responder, No [19]: 10 (55.6) n (%)
Responder, Yes [19]: 8 (44.4) n (%)
Responder, No (Site 132, 2.5 mg): 5 (83.3) n (%)
Responder, Yes (Site 132, 2.5 mg): 1 (16.7) n (%)
Responder, No (Site 132, 5 mg): 1 (20.0) n (%)
Responder, Yes (Site 132, 5 mg): 4 (80.0) n (%)
Responder, No (Site 132, 10 mg): 3 (42.9) n (%)
Responder, Yes (Site 132, 10 mg): 4 (57.1) n (%)
Responder, No (Site 132, 20 mg): 2 (22.2) n (%)
Responder, Yes (Site 132, 20 mg): 7 (77.8) n (%)
Responder, No (Site 132, Total E5501): 11 (40.7) n (%)
Responder, Yes (Site 132, Total E5501): 16 (59.3) n (%)
responder rate (by Day 7, 2.5 mg): 6.7%
responder rate (by Day 7, 5 mg): 66.7%
responder rate (by Day 7, 10 mg): 64%
responder rate (by Day 7, 20 mg): 93.3% and 93%
subjects who achieved an increase in platelet count by ≧50,000/mm^3 (by Day 7, 20 mg): Approximately 90%
Subjects Who Maintained Responder Status, No (2.5 mg): 13 (100.0) n (%)
Subjects Who Maintained Responder Status, No (5 mg): 10 (71.4) n (%)
Subjects Who Maintained Responder Status, No (10 mg): 7 (58.3) n (%)
Subjects Who Maintained Responder Status, No (20 mg): 3 (23.1) n (%)
Subjects Who Maintained Responder Status, Yes (2.5 mg): 0 n (%)
Subjects Who Maintained Responder Status, Yes (5 mg): 4 (28.6) n (%)
Subjects Who Maintained Responder Status, Yes (10 mg): 5 (41.7) n (%)
Subjects Who Maintained Responder Status, Yes (20 mg): 10 (76.9) n (%)
Subjects Who Maintained Responder Status, Yes (Total E5501): 19 (36.5) n (%)
Subjects Who Maintained Responder Status, No (Total E5501): 33 (63.5) n (%)
subjects with increased platelet counts that met the criteria for positive response (2.5 mg): 13.3%
subjects with increased platelet counts that met the criteria for positive response (5 mg): 53.3%
subjects with increased platelet counts that met the criteria for positive response (10 mg): 50%
subjects with increased platelet counts that met the criteria for positive response (20 mg): 80%
response (other sites pooled, 5 mg): 40%
response (site 132, 5 mg): 80%
subjects who responded by day 7 (dose of ≧5 mg): 57.6%
overall response rate (highest dose of E5501 tested): 80-93%
reduction of response rates from day 7 to 28 days (lower E5501 dose groups): about 30%
subjects treated with E5501 who responded by day 3 (of 13 subjects): One
subjects treated with E5501 who responded by day 5 (of 19 subjects): 6 subjects
